This note sets out measurements from BindingDB's records for doi:10.1021/jm00171a003 (Merck, 1990).

Numbered stars: 1 amine (or outer) side, 2 acyl side, 3 side chain; on linkers, the order of the positions; unused ones are H or OH. Square brackets hold non-standard residues; d marks the D form. Peptide text beside a SMILES is read from it. X6 = CN(C)C[C@H]1C=NN([*:1])[C@H](C(=O)[*:2])C1; X5 = O=C1CC[C@@H](C(=O)[*:2])N([*:1])N1; dPiz(1,6-dehydro) = O=C(O)[C@H]1CCC=NN1; X2 = CN1CCC[C@@H](C(=O)[*:2])N1[*:1]; X1 = CN1CCC[C@H](C(=O)[*:2])N1[*:1]; X7 = O=C([C@@H]1C=CC=NN1[*:1])[*:2]; X3 = O=C([C@H]1CCCNN1[*:1])[*:2]; dNMeF = CN[C@H](Cc1ccccc1)C(=O)O

The target in the first experiment is Vasopressin V1a receptor (Rattus norvegicus) (UniProt P30560). Description: Binding affinity against Vasopressin receptor in rat liver.
Vasopressin V1a receptor (Rattus norvegicus), sequence (P30560 whole entry, looked up): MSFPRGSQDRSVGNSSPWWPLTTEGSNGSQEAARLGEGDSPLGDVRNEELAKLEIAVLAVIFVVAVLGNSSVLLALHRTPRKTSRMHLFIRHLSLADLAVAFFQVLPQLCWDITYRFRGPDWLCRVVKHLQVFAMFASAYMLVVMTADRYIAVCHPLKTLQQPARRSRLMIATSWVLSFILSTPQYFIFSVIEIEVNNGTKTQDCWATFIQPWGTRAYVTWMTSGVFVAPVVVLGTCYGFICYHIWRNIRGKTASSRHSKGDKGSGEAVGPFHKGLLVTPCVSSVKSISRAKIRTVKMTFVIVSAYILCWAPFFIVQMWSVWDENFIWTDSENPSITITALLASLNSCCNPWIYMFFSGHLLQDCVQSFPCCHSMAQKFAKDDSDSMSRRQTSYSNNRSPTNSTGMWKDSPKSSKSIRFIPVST
By Ki is commonly meant a dissociation constant, usually derived from enzyme kinetics or from competition with a known ligand. Low values mean higher affinity, high ones lower affinity. Turning to `CC[C@H](C)[C@@H]1NC(=O)[C@@H](Cc2ccccc2)NC(=O)[C@@H]2CCCN2C(=O)[C@@H](Cc2ccccc2)N(C)C(=O)[C@@H]2CCC(=O)NN2C(=O)[C@H]2CCCNN2C1=O` (cyclo(I[X3][X5][dNMeF]P[dF])), the inhibition constant Ki was found to be 3900 nM.

Turning to `CC[C@H](C)[C@@H]1NC(=O)[C@@H](Cc2ccccc2)NC(=O)[C@@H]2CCCN2C(=O)[C@@H](Cc2ccccc2)N(C)C(=O)[C@@H]2CCC(=O)NN2C(=O)[C@H]2CCC=NN2C1=O` (cyclo(I[dPiz(1,6-dehydro)][X5][dNMeF]P[dF])), affinity was put at a Ki of 1600 nM.

In turn, `CC[C@@H](C)[C@@H]1NC(=S)[C@@H](Cc2ccccc2)NC(=O)[C@@H]2CCCN2C(=O)[C@@H](Cc2ccccc2)N(C)C(=O)[C@@H]2CCC=NN2C(=O)[C@H]2CCC=NN2C1=O` displayed a Ki of 140 nM.

The target is the same in another experiment. The description is as above. This is another data set of the same source.
On to `CC[C@H](C)[C@@H]1NC(=O)[C@@H](Cc2ccccc2)NC(=O)[C@@H]2CCCN2C(=O)[C@@H](Cc2ccccc2)N(C)C(=O)[C@@H]2C=CC=NN2C(=O)[C@H]2CCC=NN2C1=O` (cyclo(I[dPiz(1,6-dehydro)][X7][dNMeF]P[dF])), for which the affinity corresponds to a Ki of 390 nM.

As for `CC[C@H](C)[C@H]1C(=O)N2NCCC[C@@H]2C(=O)N2NCCC[C@H]2C(=O)N(C)[C@H](Cc2ccccc2)C(=O)N2CCC[C@H]2C(=O)N[C@H](Cc2ccccc2)C(=O)N1O`, the Ki stood at 2200 nM.

`CC[C@H](C)[C@@H]1NC(=O)[C@@H](Cc2ccccc2)NC(=O)[C@@H]2CCCN2C(=O)[C@@H](Cc2ccccc2)N(C)C(=O)[C@@H]2C[C@@H](CN(C)C)C=NN2C(=O)[C@H]2CCC=NN2C1=O` (cyclo(I[dPiz(1,6-dehydro)][X6][dNMeF]P[dF])) yielded a Ki of 550 nM.

Turning to `CC[C@H](C)[C@@H]1NC(=O)[C@@H](Cc2ccccc2)NC(=O)[C@@H]2CCCN2C(=O)[C@@H](Cc2ccccc2)N(C)C(=O)[C@@H]2CCCN(C)N2C(=O)[C@H]2CCCN(C)N2C1=O` (cyclo(I[X1][X2][dNMeF]P[dF])), the affinity corresponds to a Ki of 7400 nM.

`CC[C@H](C)[C@@H]1NC[C@@H](Cc2ccccc2)NC(=O)[C@@H]2CCCN2C(=O)[C@@H](Cc2ccccc2)N(C)C(=O)[C@@H]2CCC=NN2C(=O)[C@H]2CCC=NN2C1=O` showed a Ki of over 30000 nM.
